Molecular target: T1, NOD2 (Homo sapiens, UniProt Q9HC29)
T1 construct: host or cells: HEK-293T-derived HEK-Blue NF-kB/SEAP reporter cells
Assay: NOD2-HEK-Blue NF-κB reporter cell activation assay (NOD2-expressing HEK-293T cells)
Assay type: cell-based
Conditions: Table 1
Excerpt: FIG. 1(A-F). Virtual screening for small molecule NOD2 agonists. A, Docked structure of muramyl dipeptide (MDP) in the leucine-rich repeat (LRR) domain of rabbit NOD2 (pdb 5IRM). […] B, Results of virtual docking approach with reported chemical structures related to MDP. C, Workflow of virtual screening in which a library was generated using carboxylic acids appended to the L-Val-D-Glu dipeptide and then docked to the NOD2 LRR domain. D, Desmuramyl MDP (dMDP) structures resulting from the virtual screen that were synthesized for further screening. Chemicals shown as a pure enantiomer were synthesized as a racemic mixture. E, Activation of NOD2-expressing HEK-293T cells treated for 16 h with 10 µM of the indicated compound using a colorimetric assay. F, Dose-dependent activation of NOD2-expressing HEK-293T cells using the indicated compounds. Numbers in parentheses represent calculated negative log of the half maximal effective concentration (pEC50) values. NOD activation assays were analyzed using a one-way ANOVA with Dunnett's multiple comparisons test compared to the DMSO control. pEC50 values were derived by a three-parameter dose-response nonlinear regression. ****P<0.0001.
FIG. 2(A-G). Structure-activity relationship studies of 3,5-dimethyl-N-arylpyrazole NOD2 agonists. A, Structures of 3,5-dimethyl-N-arylpyrazole structures synthesized for SAR studies. B-F, Dose-dependent activation of NOD2-expressing HEK-293T cells using the indicated compounds grouped by similar structural perturbations. Numbers in parentheses represent calculated pEC50 values. G, Graph of calculated pEC50 values vs. calculated partition coefficient (clogP). Dotted lines show equivalent lipophilic ligand efficiency (LLE) values. Red arrow indicates optimization of the TT007 scaffold to TT030. pEC50 values were derived by a three-parameter dose-response nonlinear regression.
Cell culture. The following cell lines were used and sourced as follows: HEK-Blue NOD2 (InvivoGen, hkb-hnod2), HEK-Blue NOD1 (InvivoGen, hkb-nod1), HEK-Blue Null2 (hkb-null2), and B16-F10 (ATCC CRL-6475). All cell lines were cultured at 37° C. in 5% CO2 in DMEM (ThermoFisher, 11995065) supplemented with 10% fetal bovine serum (FBS), 100 U mL-1 penicillin, and 100 μg mL-1 streptomycin. Cells were maintained at no greater than 70% confluency and subcultured using TrypLE Express. Cell lines were routinely cultured without antibiotics to ensure no bacterial infection and tested for mycoplasma using a Universal Mycoplasma Detection Kit (ATCC 30-1012K). Primary human peripheral mononuclear blood cells (PBMCs) were cultured at 37° C. in 5% CO2 in RPMI 1640 (ThermoFisher, 61870143) supplemented with 10% FBS. All experimental work using human samples was reviewed and approved by the Scripps Research Institutional Review Board (Protocol IRB-21-7816NOD2).
Reporter cell line activation assay. Approximately 24 h before the assay, culture medium for each of the HEK-Blue reporter cell lines was replaced with a 1:1 mixture of DMEM supplemented with 10% FBS and OptiMEM. On the day of the assay, single cell suspensions (150,000 cells/mL) were produced in HEK-Blue detection medium (InvivoGen, hb-det2). Cells were aliquoted at 200 μL per well of a 96-well plate containing 0.2 μL of a 1000× stock of each test compound in DMSO. Cells were then incubated at 37° C. in 5% CO2 for 8-10 h. To measure activity, wells were then gently pipetted up and down to mix the conditioned medium, and absorbance from the colorimetric product of the secreted alkaline phosphatase was measured at 630 nm. In some assays, cells were stimulated for 16 h with compounds as described above in complete DMEM. Then, 20 μL of the conditioned medium was mixed with 180 μL QUANTI-Blue solution (InvivoGen, rep-qbs) and incubated for 2-4 h at 37° C. Activity was then measured by absorbance as described above.

T1 sequence (Q9HC29 whole entry): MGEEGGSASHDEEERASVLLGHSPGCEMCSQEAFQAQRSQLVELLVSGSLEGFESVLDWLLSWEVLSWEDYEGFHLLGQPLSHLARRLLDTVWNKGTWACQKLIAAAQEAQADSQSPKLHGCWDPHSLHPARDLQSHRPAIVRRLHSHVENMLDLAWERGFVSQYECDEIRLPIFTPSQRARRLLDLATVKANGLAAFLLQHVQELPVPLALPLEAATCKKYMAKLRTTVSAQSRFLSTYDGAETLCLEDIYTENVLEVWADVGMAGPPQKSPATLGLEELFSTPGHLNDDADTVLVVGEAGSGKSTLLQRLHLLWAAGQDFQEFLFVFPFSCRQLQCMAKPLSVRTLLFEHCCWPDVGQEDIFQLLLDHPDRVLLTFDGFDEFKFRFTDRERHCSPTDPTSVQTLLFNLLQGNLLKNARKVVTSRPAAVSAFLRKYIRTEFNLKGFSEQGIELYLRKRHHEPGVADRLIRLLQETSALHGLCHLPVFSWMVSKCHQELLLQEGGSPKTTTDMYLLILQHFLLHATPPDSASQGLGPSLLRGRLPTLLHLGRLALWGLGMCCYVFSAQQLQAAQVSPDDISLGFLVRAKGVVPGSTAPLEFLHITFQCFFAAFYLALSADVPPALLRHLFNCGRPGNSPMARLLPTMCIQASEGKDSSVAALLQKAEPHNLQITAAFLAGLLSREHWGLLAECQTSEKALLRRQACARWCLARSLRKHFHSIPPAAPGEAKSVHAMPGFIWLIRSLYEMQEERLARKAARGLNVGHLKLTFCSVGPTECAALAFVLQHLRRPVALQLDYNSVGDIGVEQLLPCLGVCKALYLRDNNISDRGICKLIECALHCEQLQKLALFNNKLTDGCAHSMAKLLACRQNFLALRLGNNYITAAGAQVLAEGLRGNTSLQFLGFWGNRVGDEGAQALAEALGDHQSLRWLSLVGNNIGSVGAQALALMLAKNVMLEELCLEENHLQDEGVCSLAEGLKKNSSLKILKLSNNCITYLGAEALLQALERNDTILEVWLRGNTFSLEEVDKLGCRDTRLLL

With `CCOC(=O)CC[C@@H](NC(=O)[C@@H](NC(=O)CCCc1ccccc1)C(C)C)C(=O)OCC` [TT001, Diethyl (4-phenylbutanoyl)-L-valyl-D-glutamate] the “NOD2 activation, result in words in the pEC50 column” value was “Active”.

Same assay, conditions: calculated, three-parameter dose-response nonlinear regression; read-out: pEC50 (μM), dose-dependent activation of NOD2-expressing HEK-293T cells (converted)

First: CCOC(=O)CC[C@@H](NC(=O)[C@@H](NC(=O)C1(Cc2ccc(F)cc2)CCCC1)C(C)C)C(=O)OCC [TT003, Diethyl (1-(4-fluorobenzyl)cyclopentane-1-carbonyl)-L-valyl-D-glutamate]
Second: CCOC(=O)CC[C@@H](NC(=O)[C@@H](NC(=O)CNC(=O)/C=C/c1ccccc1)C(C)C)C(=O)OCC [CinGVE, Diethyl cinnamoylglycyl-L-valyl-D-glutamate, reference compound]
The EC50 of the first is 25-fold lower: 0.0501 µM for the first, 1.26 µM for the second.

Going from `CCOC(=O)CC[C@@H](NC(=O)[C@@H](NC(=O)c1cnn(-c2ccccc2O)c1C)C(C)C)C(=O)OCC` [TT014, Diethyl (1-(2-hydroxyphenyl)-5-methyl-1H-pyrazole-4-carbonyl)-L-valyl-D-glutamate] to `CCOC(=O)CC[C@@H](NC(=O)[C@@H](NC(=O)c1c(C)nn(-c2ccccc2)c1C)C(C)C)C(=O)OCC` [TT018, Diethyl (3,5-dimethyl-1-phenyl-1H-pyrazole-4-carbonyl)-L-valyl-D-glutamate], the EC50 falls from 31.6 µM to 2.51 µM (13-fold).

First: CCOC(=O)CC[C@@H](NC(=O)[C@@H](NC(=O)c1c(C)nn(-c2ccc(OC)cc2)c1C)C(C)C)C(=O)OCC [TT023, Diethyl (1-(4-methoxyphenyl)-3,5-dimethyl-1H-pyrazole-4-carbonyl)-L-valyl-D-glutamate]
Second: CCOC(=O)CC[C@@H](NC(=O)[C@@H](NC(=O)c1c(C)nn(-c2ccncc2)c1C)C(C)C)C(=O)OCC [TT031, Diethyl (3,5-dimethyl-1-(pyridin-4-yl)-1H-pyrazole-4-carbonyl)-L-valyl-D-glutamate]
The EC50 of the first is 1.6-fold lower: 2 µM for the first, 3.16 µM for the second.

Compared with `CCOC(=O)CC[C@@H](NC(=O)[C@@H](NC(=O)c1c(C)nn(-c2cnc3[nH]ccc3c2)c1C)C(C)C)C(=O)OCC` [TT029, Diethyl (3,5-dimethyl-1-(1H-pyrrolo[2,3-b]pyridin-5-yl)-1H-pyrazole-4-carbonyl)-L-valyl-D-glutamate], `CCOC(=O)CC[C@@H](NC(=O)[C@@H](NC(=O)c1c(C)nn(-c2ccc3[nH]ccc3c2)c1C)C(C)C)C(=O)OCC` [TT028, Diethyl (1-(1H-indol-5-yl)-3,5-dimethyl-1H-pyrazole-4-carbonyl)-L-valyl-D-glutamate] is 1.6-fold lower in EC50: 0.398 µM for the first, 0.251 µM for the second.

Work on `CCOC(=O)CC[C@@H](NC(=O)[C@@H](NC(=O)c1c(C)nn(-c2cncnc2)c1C)C(C)C)C(=O)OCC` [TT034, Diethyl (3,5-dimethyl-1-(pyrimidin-5-yl)-1H-pyrazole-4-carbonyl)-L-valyl-D-glutamate] yielded an EC50 of 2.51 µM.

Same assay, conditions: relative to TT007; FIG. 2B, 2D, 2F, 6E

`CCOC(=O)CC[C@@H](NC(=O)[C@@H](NC(=O)c1c(C)nn(-c2ccc(OC)cc2)c1C)C(C)C)C(=O)OCC` [TT023, Diethyl (1-(4-methoxyphenyl)-3,5-dimethyl-1H-pyrazole-4-carbonyl)-L-valyl-D-glutamate] was tested, and the “Potency in structure-activity comparison” value was “did not yield compounds with appreciable differences in potency”.
With `CCOC(=O)CC[C@@H](NC(=O)[C@@H](NC(=O)c1c(C)nn(-c2ccccc2)c1C)C(C)C)C(=O)OCC` [TT018, Diethyl (3,5-dimethyl-1-phenyl-1H-pyrazole-4-carbonyl)-L-valyl-D-glutamate] the “Potency in structure-activity comparison” value was “did not yield compounds with appreciable differences in potency”.
